Values belong to the compound of their own block, whether it stands above or below them. Calls of active or inactive are those of the source. Unless noted, no cut-off for these calls is given here.
Key:
HEK293 = assay: EBV LMP1 TES2 canonical NF-kB signalling blockers – cell-based, HEK293, luciferase, cherry-pick, dose response (AID 588343); type: functional; settings: Homo sapiens
[1] = biological target: Latent membrane protein 1 (Human herpesvirus 4 (strain B95-8), UniProt P03230); assay: LMP1 TES1 pathway selectivity over dsRED control – imaging, HEK293T, dual-color eGFP/dsRED, cherry-picks, selectivity assay for LMP1 NF-kB inhibitor project, dose response (AID 588398); type: functional, cell-based
[2] = biological target: Sphingosine 1-phosphate receptor 3 (Homo sapiens, UniProt Q99500); assay: Late-stage fluorescence-based dose-response cell-based counterscreen assay to identify agonists of the Sphingosine 1-Phosphate Receptor 4 (S1P4): Sphingosine 1-Phosphate Receptor 3 (S1P3) agonist assay Set 2.; type: functional
[3] = biological target: Sphingosine 1-phosphate receptor 5 (Homo sapiens, UniProt Q9H228); assay: activation of human S1P5 receptor – cell-based, fluorescence, set 2, counter-screen for S1P4 agonist project, late-stage follow-up (AID 504867); type: functional
[4] = biological target: Sphingosine 1-phosphate receptor 2 (Homo sapiens, UniProt O95136); assay: activation of human S1P2 receptor – cell-based, fluorescence, set 2, counter-screen for S1P4 agonist project, late-stage follow-up (AID 504873); type: functional
[5] = biological target: Sphingosine 1-phosphate receptor 1 (Homo sapiens, UniProt P21453); assay: Late-stage fluorescence-based dose-response cell-based counterscreen assay to identify agonists of the Sphingosine 1-Phosphate Receptor 4 (S1P4): Sphingosine 1-Phosphate Receptor 1 (S1P1) agonist assay Set 2.; type: functional
CAAX prenyl protease 2 [6] = biological target: T1, CAAX prenyl protease 2 (Saccharomyces cerevisiae S288c, UniProt Q03530); assay: inhibition of Rce1p peptide cleavage – biochemical, plate reader, dry powder retest, dose response (AID 588851)
T1 sequence (Q03530 whole entry): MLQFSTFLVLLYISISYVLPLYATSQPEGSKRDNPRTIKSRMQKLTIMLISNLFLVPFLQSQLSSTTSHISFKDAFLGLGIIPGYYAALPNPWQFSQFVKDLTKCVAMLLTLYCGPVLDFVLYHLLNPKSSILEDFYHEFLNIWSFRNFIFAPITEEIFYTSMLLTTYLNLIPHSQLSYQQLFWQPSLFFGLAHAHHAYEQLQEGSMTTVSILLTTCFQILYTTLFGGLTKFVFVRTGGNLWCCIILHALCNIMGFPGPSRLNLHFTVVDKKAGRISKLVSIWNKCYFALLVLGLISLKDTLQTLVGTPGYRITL

CAAX prenyl protease 2 [7] = biological target: T1, CAAX prenyl protease 2; type: biochemical
[8] = biological target: Benomyl/methotrexate resistance protein (Candida albicans, UniProt P28873); assay: Candida albicans Mdr1 pump blockade titration – singleplex, Cherry Pick2 set, dose response (AID 623992); type: functional; settings: read-out: EC50_MICROM
[9] = biological target: T2, Multidrug resistance protein CDR2 (Candida albicans (strain SC5314 / ATCC MYA-2876) (Yeast), UniProt P78595); assay: inhibition of Nile Red efflux via Candida CDR2 – S. cerevisiae AD1-8u, singleplex, Cherry Pick1 hits, dose response (AID 588604); type: functional
[10] = biological target: T2, Multidrug resistance protein CDR2; assay: blockers of Nile Red efflux by Candida CDR2 – S. cerevisiae AD1-8u, singleplex, Cherry Pick2 set, dose response (AID 623994); type: functional; settings: read-out: EC50_MICROM
[11] = biological target: T3, Ubiquitin-conjugating enzyme E2 N (Homo sapiens, UniProt P61088); type: functional;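 note: Dose-response confirmation in a TR-FRET assay detecting UBC13-driven polyubiquitin chain formation, inhibition measured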
T3 sequence (P61088 whole entry): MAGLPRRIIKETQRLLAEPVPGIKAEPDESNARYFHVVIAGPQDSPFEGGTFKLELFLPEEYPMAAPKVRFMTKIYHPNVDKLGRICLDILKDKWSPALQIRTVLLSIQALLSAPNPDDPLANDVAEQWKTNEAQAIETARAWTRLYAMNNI

[12] = biological target: Multidrug resistance protein CDR1 (Candida albicans, UniProt P43071); assay: Candida albicans Cdr1 pump inhibition curves – singleplex, Cherry Pick2 set, dose response (AID 623996); type: functional; settings: read-out: EC50_MICROM
[13] = Luminescence Cell-Based Dose Retest to Confirm Inhibitors of Cancer Stem Cells. [Related pubchem assays (depositor defined):AID2717, AID2721]; type: functional; settings: Homo sapiens
[14] = biological target: DNA dC->dU-editing enzyme APOBEC-3G (Homo sapiens, UniProt Q9HC16); assay: inhibition of APOBEC3G ssDNA deamination – biochemical, fluorescence, single-stranded DNA substrate, SAR follow-up (AID 602136); type: functional; settings: read-out: IC50_Mean
[15] = biological target: DNA dC->dU-editing enzyme APOBEC-3A (Homo sapiens, UniProt P31941); assay: SAR analysis of small molecule inhibitors of APOBEC3A DNA Deaminase via a fluorescence-based single-stranded DNA deaminase assay.; type: functional; settings: read-out: IC50_Mean
INS1 [16] = assay: suppression of cytokine-induced beta-cell apoptosis – INS-1E, caspase luminescence, dry powder, beta-cell apoptosis inhibitor project, dose response (AID 488848); type: functional, cell-based; settings: Rattus norvegicus
INS1 [17] = assay: suppression of NO production in INS-1E cells – cell-based, Griess absorbance, dry powder, set 2, dose response (AID 488868); type: functional; settings: Rattus norvegicus

T2 sequence (P78595 whole entry): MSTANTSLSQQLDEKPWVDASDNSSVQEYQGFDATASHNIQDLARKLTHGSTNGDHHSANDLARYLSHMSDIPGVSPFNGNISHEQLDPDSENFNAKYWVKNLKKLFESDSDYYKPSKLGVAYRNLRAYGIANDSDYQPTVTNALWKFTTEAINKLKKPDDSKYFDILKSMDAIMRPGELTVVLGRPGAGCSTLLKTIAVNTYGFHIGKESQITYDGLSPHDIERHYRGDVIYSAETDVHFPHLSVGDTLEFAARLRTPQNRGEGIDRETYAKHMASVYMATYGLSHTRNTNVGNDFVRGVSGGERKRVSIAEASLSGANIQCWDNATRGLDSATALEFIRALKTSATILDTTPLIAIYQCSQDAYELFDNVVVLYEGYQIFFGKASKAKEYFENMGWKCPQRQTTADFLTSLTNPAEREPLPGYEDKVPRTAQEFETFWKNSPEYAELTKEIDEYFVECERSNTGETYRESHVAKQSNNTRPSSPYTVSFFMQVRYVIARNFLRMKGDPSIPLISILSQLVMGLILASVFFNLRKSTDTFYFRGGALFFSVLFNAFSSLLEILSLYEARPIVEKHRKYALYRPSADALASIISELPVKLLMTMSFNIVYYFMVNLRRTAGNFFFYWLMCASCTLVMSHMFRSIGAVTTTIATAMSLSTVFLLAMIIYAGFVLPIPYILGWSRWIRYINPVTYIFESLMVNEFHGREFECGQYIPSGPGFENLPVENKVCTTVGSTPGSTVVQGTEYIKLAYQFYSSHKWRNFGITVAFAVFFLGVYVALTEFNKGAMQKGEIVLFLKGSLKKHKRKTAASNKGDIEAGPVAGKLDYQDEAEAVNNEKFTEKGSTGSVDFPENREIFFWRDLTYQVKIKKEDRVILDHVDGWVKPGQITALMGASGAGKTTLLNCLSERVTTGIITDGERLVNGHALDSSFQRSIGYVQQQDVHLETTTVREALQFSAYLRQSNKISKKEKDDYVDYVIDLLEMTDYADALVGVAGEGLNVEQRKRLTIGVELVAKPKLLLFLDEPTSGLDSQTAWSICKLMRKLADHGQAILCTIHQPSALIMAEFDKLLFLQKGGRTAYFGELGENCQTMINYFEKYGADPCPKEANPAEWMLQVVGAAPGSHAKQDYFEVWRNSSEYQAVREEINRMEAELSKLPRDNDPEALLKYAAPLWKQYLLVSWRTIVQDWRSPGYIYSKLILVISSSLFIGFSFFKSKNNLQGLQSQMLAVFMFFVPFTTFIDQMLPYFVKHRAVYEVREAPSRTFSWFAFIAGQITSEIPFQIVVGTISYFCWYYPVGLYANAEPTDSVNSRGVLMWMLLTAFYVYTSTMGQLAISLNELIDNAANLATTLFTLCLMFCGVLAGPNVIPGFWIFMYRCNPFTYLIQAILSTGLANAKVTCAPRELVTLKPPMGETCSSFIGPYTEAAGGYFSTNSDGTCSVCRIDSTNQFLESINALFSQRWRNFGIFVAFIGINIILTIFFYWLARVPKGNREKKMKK
Chain of Sphingosine 1-phosphate receptor 2 (O95136 whole entry): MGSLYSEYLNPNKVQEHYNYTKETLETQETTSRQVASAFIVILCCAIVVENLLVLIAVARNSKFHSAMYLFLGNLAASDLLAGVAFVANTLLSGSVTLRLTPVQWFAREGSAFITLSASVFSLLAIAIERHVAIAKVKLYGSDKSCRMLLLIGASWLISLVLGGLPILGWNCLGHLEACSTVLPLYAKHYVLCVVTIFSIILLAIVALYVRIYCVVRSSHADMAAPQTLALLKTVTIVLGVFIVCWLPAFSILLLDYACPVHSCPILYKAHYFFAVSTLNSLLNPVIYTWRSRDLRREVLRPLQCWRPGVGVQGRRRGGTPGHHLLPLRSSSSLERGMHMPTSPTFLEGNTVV
Chain of Multidrug resistance protein CDR1 (P43071 whole entry, looked up): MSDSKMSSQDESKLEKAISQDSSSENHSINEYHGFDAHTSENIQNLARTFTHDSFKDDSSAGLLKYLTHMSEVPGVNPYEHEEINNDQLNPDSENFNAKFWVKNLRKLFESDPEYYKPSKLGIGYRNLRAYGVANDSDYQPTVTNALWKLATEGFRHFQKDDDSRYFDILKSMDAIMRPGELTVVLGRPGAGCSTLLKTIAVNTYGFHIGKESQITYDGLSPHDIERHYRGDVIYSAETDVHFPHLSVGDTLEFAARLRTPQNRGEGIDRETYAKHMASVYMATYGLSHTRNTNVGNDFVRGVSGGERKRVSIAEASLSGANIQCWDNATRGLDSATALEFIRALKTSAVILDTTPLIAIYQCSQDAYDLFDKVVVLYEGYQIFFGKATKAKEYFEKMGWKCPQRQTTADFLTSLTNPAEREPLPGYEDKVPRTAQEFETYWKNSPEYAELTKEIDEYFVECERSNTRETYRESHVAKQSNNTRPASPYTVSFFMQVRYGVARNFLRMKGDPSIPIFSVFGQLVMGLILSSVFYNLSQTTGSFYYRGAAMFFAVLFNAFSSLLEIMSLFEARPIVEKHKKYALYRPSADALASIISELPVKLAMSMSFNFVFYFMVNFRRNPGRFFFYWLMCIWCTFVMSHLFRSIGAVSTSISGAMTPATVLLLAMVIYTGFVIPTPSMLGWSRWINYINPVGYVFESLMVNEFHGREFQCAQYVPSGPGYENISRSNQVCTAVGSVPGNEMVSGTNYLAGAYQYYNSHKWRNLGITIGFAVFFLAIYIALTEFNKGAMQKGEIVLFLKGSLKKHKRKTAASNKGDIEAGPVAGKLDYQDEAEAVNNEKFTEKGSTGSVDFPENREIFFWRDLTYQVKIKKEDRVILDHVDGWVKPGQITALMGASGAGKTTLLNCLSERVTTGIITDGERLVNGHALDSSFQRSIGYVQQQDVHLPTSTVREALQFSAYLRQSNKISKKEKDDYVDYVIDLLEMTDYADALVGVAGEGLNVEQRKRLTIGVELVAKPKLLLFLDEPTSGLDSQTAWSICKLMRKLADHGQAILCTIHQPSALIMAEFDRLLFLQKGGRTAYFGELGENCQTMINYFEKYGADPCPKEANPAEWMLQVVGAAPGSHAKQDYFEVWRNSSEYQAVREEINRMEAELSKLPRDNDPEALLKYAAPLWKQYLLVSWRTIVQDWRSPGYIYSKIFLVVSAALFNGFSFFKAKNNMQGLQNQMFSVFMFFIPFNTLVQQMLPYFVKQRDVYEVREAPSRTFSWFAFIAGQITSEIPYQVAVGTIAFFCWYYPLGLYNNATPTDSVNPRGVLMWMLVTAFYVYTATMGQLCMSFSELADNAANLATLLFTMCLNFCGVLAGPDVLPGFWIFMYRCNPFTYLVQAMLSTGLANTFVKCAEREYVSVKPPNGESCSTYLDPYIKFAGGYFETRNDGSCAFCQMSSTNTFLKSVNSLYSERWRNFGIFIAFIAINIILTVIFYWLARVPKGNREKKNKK
Chain of Sphingosine 1-phosphate receptor 3 (Q99500 whole entry): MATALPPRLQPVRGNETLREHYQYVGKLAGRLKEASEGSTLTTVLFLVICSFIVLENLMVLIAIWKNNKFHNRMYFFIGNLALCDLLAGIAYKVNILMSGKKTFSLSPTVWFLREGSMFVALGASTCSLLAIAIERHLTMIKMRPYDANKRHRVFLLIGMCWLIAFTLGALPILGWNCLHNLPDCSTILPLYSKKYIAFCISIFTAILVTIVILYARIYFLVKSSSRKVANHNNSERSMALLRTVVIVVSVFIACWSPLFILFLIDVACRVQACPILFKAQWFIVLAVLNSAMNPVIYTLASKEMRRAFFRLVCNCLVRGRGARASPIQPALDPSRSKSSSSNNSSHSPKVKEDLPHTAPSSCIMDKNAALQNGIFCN
Chain of Benomyl/methotrexate resistance protein (P28873 whole entry): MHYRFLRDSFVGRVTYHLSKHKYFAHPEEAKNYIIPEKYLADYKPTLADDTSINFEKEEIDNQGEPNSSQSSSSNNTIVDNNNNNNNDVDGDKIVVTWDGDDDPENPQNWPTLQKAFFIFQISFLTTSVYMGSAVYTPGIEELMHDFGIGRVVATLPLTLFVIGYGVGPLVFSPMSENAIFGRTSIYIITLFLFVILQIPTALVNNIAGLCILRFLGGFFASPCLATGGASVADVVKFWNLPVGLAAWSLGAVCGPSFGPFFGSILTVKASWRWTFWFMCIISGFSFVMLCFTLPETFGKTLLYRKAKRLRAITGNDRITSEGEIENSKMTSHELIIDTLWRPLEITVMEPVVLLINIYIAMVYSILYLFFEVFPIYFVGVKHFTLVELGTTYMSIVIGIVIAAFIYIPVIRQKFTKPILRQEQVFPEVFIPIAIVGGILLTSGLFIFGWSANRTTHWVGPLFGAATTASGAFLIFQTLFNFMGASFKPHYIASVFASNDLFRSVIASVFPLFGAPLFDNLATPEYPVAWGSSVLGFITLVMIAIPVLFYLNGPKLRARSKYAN
Chain of Latent membrane protein 1 (P03230 whole entry): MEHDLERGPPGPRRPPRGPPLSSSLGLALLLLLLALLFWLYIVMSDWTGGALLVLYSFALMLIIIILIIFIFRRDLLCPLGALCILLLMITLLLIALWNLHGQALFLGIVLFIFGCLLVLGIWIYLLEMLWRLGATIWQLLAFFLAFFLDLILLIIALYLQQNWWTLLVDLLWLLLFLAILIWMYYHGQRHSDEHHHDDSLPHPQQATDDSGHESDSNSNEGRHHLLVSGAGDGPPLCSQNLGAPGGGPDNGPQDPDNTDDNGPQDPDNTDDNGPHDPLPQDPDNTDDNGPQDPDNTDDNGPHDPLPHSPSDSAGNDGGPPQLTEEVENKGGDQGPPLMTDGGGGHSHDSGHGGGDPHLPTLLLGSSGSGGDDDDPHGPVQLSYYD
Chain of DNA dC->dU-editing enzyme APOBEC-3G (Q9HC16 whole entry): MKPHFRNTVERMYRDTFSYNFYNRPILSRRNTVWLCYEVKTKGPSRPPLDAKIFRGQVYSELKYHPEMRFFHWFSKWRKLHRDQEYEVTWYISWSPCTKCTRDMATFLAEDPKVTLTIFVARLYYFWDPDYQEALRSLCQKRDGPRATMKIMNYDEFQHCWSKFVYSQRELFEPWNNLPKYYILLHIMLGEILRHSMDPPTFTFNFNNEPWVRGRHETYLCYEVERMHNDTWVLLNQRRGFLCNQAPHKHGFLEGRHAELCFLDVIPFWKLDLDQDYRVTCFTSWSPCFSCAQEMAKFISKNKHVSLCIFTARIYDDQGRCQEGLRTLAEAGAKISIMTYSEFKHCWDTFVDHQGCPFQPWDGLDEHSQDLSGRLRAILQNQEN

SMILES: O=C(OC1CCN(CCCl)CC1)C(c1ccccc1)c1ccccc1
AC50 (HEK293): 24.3 µM (active) | AC50 [1]: 24.2 µM (active)

EC50 [2]: > 25 µM (inactive) | EC50 [3]: > 25 µM (inactive) | EC50 [4]: > 25 µM (inactive) | EC50 [5]: > 25 µM (inactive)
SMILES: CC/N=C1\S/C(=C\c2cc(C)n(-c3ccccc3F)c2C)C(=O)N1CC

AC50 (CAAX prenyl protease 2 [6]): 3.15 µM (active) | AC50 (CAAX prenyl protease 2 [7]): 136 nM (active)
SMILES: Nc1nonc1-n1nnc(C(=O)N/N=C/c2cccc(Cl)c2)c1CSc1ccc(Cl)cc1

SMILES: COc1ccc2sc(-c3ccccc3OC)c(-c3ccc(OCCN4CCCC4)cc3)c2c1
EC50 [8]: 50.2 µM (active) | EC50 [9]: 870 nM (active) | EC50 [10]: 958 nM (active) | IC50 [11]: > 20 µM (inactive) | EC50 [12]: 23.6 µM (active) | AC50 [13]: 5.62 µM (active)

SMILES: CCOc1nc(Nc2ccccc2)nc(Nc2ccc(-c3nc4ccccc4o3)cc2)n1
IC50 [14]: > 99 µM (inactive) | IC50 [15]: > 99 µM (inactive)

SMILES: COc1ccc(S(=O)(=O)N(C)C[C@@H]2Oc3c(NC(=O)c4cccc5ccccc45)cccc3C(=O)N([C@@H](C)CO)C[C@H]2C)cc1
AC50 (INS1 [16]): > 195 µM (inactive) | AC50 (INS1 [17]): 84.8 µM (active)

From ChEMBL document CHEMBL1201862, “PubChem BioAssay data set” (2004)
